# What was measured:
# Puccinia triticina = assay: Wheat brown rust (PUCCRT) disease control on wheat seedlings; format: in vivo; conditions: for PUCCRT 1DP disease control rating, LV activity at 125.1 g/H / PUCCRT 1DP disease control rating, HV activity at 100 ppm: 1 day protectant; for PUCCRT 3DC disease control rating, LV activity at 125.1 g/H / PUCCRT 3DC disease control rating, HV activity at 100 ppm: 3 day curative; for PUCCRT 1DP disease control rating, HV activity / PUCCRT 3DC disease control rating, HV activity: HV application at 100 ppm; for PUCCRT 1DP disease control rating, HV activity at 100 ppm / PUCCRT 3DC disease control rating, HV activity at 100 ppm: high volume application
# Zymoseptoria tritici = assay: Leaf blotch of wheat (SEPTTR) disease control on wheat seedlings; format: in vivo; parameters: key to SEPTTR 1DP, HV activity at 100 ppm (% control rating) / SEPTTR 3DC, HV activity at 100 ppm (% control rating) / SEPTTR disease control, 1DP / SEPTTR disease control, 3DC / SEPTTR 1DP disease control rating, HV activity / SEPTTR 3DC disease control rating, HV activity / SEPTTR 3DC, LV activity at 125.1 g/H (% Control rating) / SEPTTR 1DP, LV activity at 125.1 g/H (% Control rating) / SEPTTR 1DP disease control rating, LV activity at 125.1 g/H / SEPTTR 3DC disease control rating, LV activity at 125.1 g/H / SEPTTR 3DC disease control rating, HV activity at 100 ppm / SEPTTR 1DP disease control rating, HV activity at 100 ppm / HV activity at 100 ppm SEPTTR 3DC (disease control rating) / HV activity at 100 ppm SEPTTR 1DP (disease control rating) / LV activity at 125.1 g/H SEPTTR 1DP (disease control rating) / LV activity at 125.1 g/H SEPTTR 3DC (disease control rating): A: > 80; B: ≤ 80; C: Not Tested; D: No Activity Observed in the Reported Assay; conditions: for SEPTTR 1DP disease control rating, LV activity at 125.1 g/H / SEPTTR 1DP disease control rating, HV activity at 100 ppm: 1 day protectant; for SEPTTR 3DC disease control rating, LV activity at 125.1 g/H / SEPTTR 3DC disease control rating, HV activity at 100 ppm: 3 day curative; for SEPTTR 1DP disease control rating, HV activity / SEPTTR 3DC disease control rating, HV activity: HV application at 100 ppm; for SEPTTR 1DP disease control rating, HV activity at 100 ppm / SEPTTR 3DC disease control rating, HV activity at 100 ppm: high volume application
# [1] = low volume application, 125.1 g/H
# [2] = 1 Day Protectant, wheat brown rust
# [3] = 3 Day Curative, wheat brown rust
# [4] = 1 Day Protectant, wheat leaf blotch
# [5] = 3 Day Curative, wheat leaf blotch
# [6] = low volume application, 125.1 g/H, 1 Day Protectant
# [7] = low volume application, 125.1 g/H, 3 Day Curative
structure (smiles),measurement,setting,value
COc1ccnc(C(=O)NC(C)C(=O)OC(C)C(Oc2ccccc2)C2CCCCC2)c1OCOC(C)=O (stereo not drawn) [Cmpd 907],"PUCCRT 1DP disease control rating, LV activity at 125.1 g/H",Puccinia triticina; [1],A (> 80)
same,"PUCCRT 3DC disease control rating, LV activity at 125.1 g/H",Puccinia triticina; [1],B (≤ 80)
same,"SEPTTR 1DP disease control rating, LV activity at 125.1 g/H",Zymoseptoria tritici; [1],B (≤ 80)
same,"SEPTTR 3DC disease control rating, LV activity at 125.1 g/H",Zymoseptoria tritici; [1],B (≤ 80)
COc1ccnc(C(=O)NC(Cc2ccccc2)C(=O)OC(C)C(Oc2ccccc2)C(C)C)c1OCOC(C)=O (stereo not drawn) [Cmpd 865],"PUCCRT 1DP disease control rating, LV activity at 125.1 g/H",Puccinia triticina; [1],A (> 80)
same,"PUCCRT 3DC disease control rating, LV activity at 125.1 g/H",Puccinia triticina; [1],A (> 80)
same,"SEPTTR 1DP disease control rating, LV activity at 125.1 g/H",Zymoseptoria tritici; [1],B (≤ 80)
same,"SEPTTR 3DC disease control rating, LV activity at 125.1 g/H",Zymoseptoria tritici; [1],B (≤ 80)
COc1ccnc(C(=O)N[C@@H](C)C(=O)O[C@@H](C)[C@H](Oc2cccc(Cl)c2)C(C)C)c1O [Cmpd 357],"PUCCRT 1DP disease control rating, HV activity",Puccinia triticina; [2],A (> 80)
same,"PUCCRT 3DC disease control rating, HV activity",Puccinia triticina; [3],A (> 80)
same,"SEPTTR 1DP disease control rating, HV activity",Zymoseptoria tritici; [4],A (> 80)
same,"SEPTTR 3DC disease control rating, HV activity",Zymoseptoria tritici; [5],A (> 80)
COc1ccnc(C(=O)N[C@@H](C)C(=O)O[C@@H](C)[C@H](Oc2cccc(Cl)c2)C2CC2)c1OC(C)=O [Cmpd 1053],LV activity at 125.1 g/H PUCCRT 1DP (disease control rating),"Puccinia triticina; low volume application, 125.1 g/H, 1 Day Protectant, wheat brown rust",A (> 80)
same,LV activity at 125.1 g/H PUCCRT 3DC (disease control rating),"Puccinia triticina; low volume application, 125.1 g/H, 3 Day Curative, wheat brown rust",A (> 80)
same,LV activity at 125.1 g/H SEPTTR 1DP (disease control rating),"Zymoseptoria tritici; low volume application, 125.1 g/H, 1 Day Protectant, wheat leaf blotch",B (≤ 80)
same,LV activity at 125.1 g/H SEPTTR 3DC (disease control rating),"Zymoseptoria tritici; low volume application, 125.1 g/H, 3 Day Curative, wheat leaf blotch",A (> 80)
C=CC[C@@H](OCc1ccccc1)[C@H](C)OC(=O)[C@H](C)NC(=O)c1nccc(OC)c1OCOC(=O)COCC [Cmpd 517],"PUCCRT 1DP, LV activity at 125.1 g/H (% Control rating)",Puccinia triticina; [6],A (> 80)
same,"PUCCRT 3DC, LV activity at 125.1 g/H (% Control rating)",Puccinia triticina; [7],A (> 80)
same,"SEPTTR 1DP, LV activity at 125.1 g/H (% Control rating)",Zymoseptoria tritici; [6],A (> 80)
same,"SEPTTR 3DC, LV activity at 125.1 g/H (% Control rating)",Zymoseptoria tritici; [7],D
CCCOC[C@@H](Oc1ccccc1)[C@H](C)OC(=O)[C@H](CC)NC(=O)c1nccc(OC)c1O [Cmpd 314],"PUCCRT 1DP disease control rating, HV activity",Puccinia triticina; [2],A (> 80)
same,"PUCCRT 3DC disease control rating, HV activity",Puccinia triticina; [3],B (≤ 80)
same,"SEPTTR 1DP disease control rating, HV activity",Zymoseptoria tritici; [4],B (≤ 80)
same,"SEPTTR 3DC disease control rating, HV activity",Zymoseptoria tritici; [5],D
COc1ccnc(C(=O)N[C@@H](C)C(=O)O[C@@H](C)[C@H](Oc2cccc(Cl)c2)C2CC2)c1O [Cmpd 1009],"PUCCRT 1DP disease control rating, HV activity at 100 ppm",Puccinia triticina,A (> 80)
same,"PUCCRT 3DC disease control rating, HV activity at 100 ppm",Puccinia triticina,A (> 80)
same,"SEPTTR 1DP disease control rating, HV activity at 100 ppm",Zymoseptoria tritici,A (> 80)
same,"SEPTTR 3DC disease control rating, HV activity at 100 ppm",Zymoseptoria tritici,A (> 80)
CC[C@H](Cc1ccc(OC)cc1)[C@@H](Oc1ccccc1)[C@H](C)OC(=O)[C@H](C)NC(=O)c1nccc(OC)c1OC(=O)C(C)C [Cmpd 472],"PUCCRT 1DP, LV activity at 125.1 g/H (% Control rating)",Puccinia triticina; [6],A (> 80)
same,"PUCCRT 3DC, LV activity at 125.1 g/H (% Control rating)",Puccinia triticina; [7],B (≤ 80)
same,"SEPTTR 1DP, LV activity at 125.1 g/H (% Control rating)",Zymoseptoria tritici; [6],A (> 80)
same,"SEPTTR 3DC, LV activity at 125.1 g/H (% Control rating)",Zymoseptoria tritici; [7],A (> 80)
COc1ccnc(C(=O)NC(C)C(=O)OC(C)C(OCC2CC2)c2ccccc2)c1O (stereo not drawn) [Cmpd 825],"PUCCRT 1DP disease control rating, HV activity at 100 ppm",Puccinia triticina,A (> 80)
same,"PUCCRT 3DC disease control rating, HV activity at 100 ppm",Puccinia triticina,A (> 80)
same,"SEPTTR 1DP disease control rating, HV activity at 100 ppm",Zymoseptoria tritici,B (≤ 80)
same,"SEPTTR 3DC disease control rating, HV activity at 100 ppm",Zymoseptoria tritici,B (≤ 80)

# — patent US20180000085A1, “USE OF PICOLINAMIDE COMPOUNDS WITH FUNGICIDAL ACTIVITY” (DOW AGROSCIENCES LLC, priority 2014, published 2018)
